Experiments:
Human δ-opioid (DOP) = target: T1, Human δ-opioid (DOP) (Homo sapiens, UniProt P41143); assay: Radioligand binding, human δ-opioid (DOP) membranes, FlashPlate, [3H]-Bremazocine; details: compound at 10 μM, [3H]-Bremazocine
T1 construct: purchased Perkin Elmer Biosignal
In short: (§1)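 Cloned human receptor membranes were coated onto FlashPlate wells and incubated with radioligand and compound (added from a 0.5 mM DMSO daughter plate) for 1 hour at room temperature in the dark. Scintillation counting gave percent inhibition, with DMSO defining total and reference ligand defining non-specific binding.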

Human κ-Opioid (KOP) = target: T2, Human κ-Opioid (KOP) (Homo sapiens, UniProt P41145); assay: Radioligand binding, human κ-opioid (KOP) membranes, filtration, [3H]-Diprenorphine; details: compound at 10 μM, [3H]-Diprenorphine
T2 construct: purchased Perkin Elmer Biosignal
In short: (§2)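 Filtration binding on cloned human receptor membranes (1 Unit/well), [125I]-Substance P for NK1 and [3H]-Diprenorphine for KOP, 1 h at room temperature. Filters PEI-presoaked, washed with cold 50 mM Tris-HCl pH 7.4, counted by scintillation; percent inhibition calculated, reference ligand defining non-specific binding.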

Human Melanocortin (MC3) = target: T3, Human Melanocortin (MC3) (Homo sapiens, UniProt P41968); assay: Radioligand binding, human melanocortin MC3 membranes, FlashPlate, [125I]-NDP-αMSH; details: compound at 10 μM, [125I]-NDP-αMSH
T3 construct: purchased Perkin Elmer Biosignal
In short: as §1

Human Melanocortin (MC4) = target: T4, Human Melanocortin (MC4) (Homo sapiens, UniProt P32245); assay: Radioligand binding, human melanocortin MC4 membranes, FlashPlate, [125I]-NDP-αMSH; details: compound at 10 μM, [125I]-NDP-αMSH
T4 construct: purchased Perkin Elmer Biosignal
In short: as §1

Human melanocortin (MC5) = target: T5, Human melanocortin (MC5) (Homo sapiens, UniProt P33032); assay: Radioligand binding, human melanocortin MC5 membranes, FlashPlate, [125I]-NDP-αMSH; details: compound at 10 μM, [125I]-NDP-αMSH
T5 construct: purchased Perkin Elmer Biosignal
In short: as §1

[1] = target: T6, Human melanin-concentrating hormone (MCH1) (Homo sapiens, UniProt Q99705); assay: Radioligand binding, human melanin-concentrating hormone MCH1 membranes, FlashPlate, [125I]-S36057; details: compound at 10 μM; for A6: inhibition of radioligand binding, human melanin-concentrating hormone (MCH1): [125I]-S36057
T6 construct: purchased Perkin Elmer Biosignal
In short: as §1

Human μ-opioid (MOP) = target: T7, Human μ-opioid (MOP) (Homo sapiens, UniProt P35372); assay: Radioligand binding, human μ-opioid (MOP) membranes, FlashPlate, [3H]-Naloxone; details: compound at 10 μM, [3H]-Naloxone
T7 construct: purchased Perkin Elmer Biosignal
In short: as §1

Human neurokinin (NK1) = target: T8, Human neurokinin (NK1) (Homo sapiens, UniProt P25103); assay: Radioligand binding, human neurokinin NK1 membranes, filtration, [125I]-Substance P; details: compound at 10 μM, [125I]-Substance P
T8 construct: purchased Perkin Elmer Biosignal
In short: as §2

[2] = target: T9, Human neuropeptide Y (NPY-Y1) (Homo sapiens, UniProt P25929); assay: Radioligand binding, human neuropeptide Y NPY-Y1 membranes, FlashPlate, [125I]-PYY; details: compound at 10 μM, [125I]-PYY
T9 construct: purchased Perkin Elmer Biosignal
T9 sequence (P25929 1-384): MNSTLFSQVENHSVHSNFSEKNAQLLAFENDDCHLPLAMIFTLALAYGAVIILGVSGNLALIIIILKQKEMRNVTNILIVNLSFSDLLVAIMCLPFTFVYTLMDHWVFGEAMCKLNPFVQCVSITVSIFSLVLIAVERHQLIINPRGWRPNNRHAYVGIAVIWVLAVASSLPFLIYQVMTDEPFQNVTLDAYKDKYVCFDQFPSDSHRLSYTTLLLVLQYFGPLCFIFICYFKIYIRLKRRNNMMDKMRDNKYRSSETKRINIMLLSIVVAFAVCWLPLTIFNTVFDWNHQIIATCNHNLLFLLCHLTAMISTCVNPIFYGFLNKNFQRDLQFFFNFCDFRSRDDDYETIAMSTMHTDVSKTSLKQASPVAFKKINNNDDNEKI
In short: as §1

Human opioid (ORL1) = target: T10, Human opioid (ORL1) (Homo sapiens, UniProt P41146); assay: Radioligand binding, human opioid ORL1 membranes, FlashPlate, [125I]-Nociceptin; details: compound at 10 μM, [125I]-Nociceptin
T10 construct: purchased Perkin Elmer Biosignal
In short: as §1

Mouse urotensin (mUR2) = target: T11, Mouse urotensin (mUR2) (Mus musculus, UniProt Q8VIH9); assay: Radioligand binding, mouse urotensin mUR2 membranes, FlashPlate, [125I]-Urotensin II; details: compound at 10 μM, [125I]-Urotensin II
T11 construct: purchased Perkin Elmer Biosignal
T11 sequence (Q8VIH9 1-385): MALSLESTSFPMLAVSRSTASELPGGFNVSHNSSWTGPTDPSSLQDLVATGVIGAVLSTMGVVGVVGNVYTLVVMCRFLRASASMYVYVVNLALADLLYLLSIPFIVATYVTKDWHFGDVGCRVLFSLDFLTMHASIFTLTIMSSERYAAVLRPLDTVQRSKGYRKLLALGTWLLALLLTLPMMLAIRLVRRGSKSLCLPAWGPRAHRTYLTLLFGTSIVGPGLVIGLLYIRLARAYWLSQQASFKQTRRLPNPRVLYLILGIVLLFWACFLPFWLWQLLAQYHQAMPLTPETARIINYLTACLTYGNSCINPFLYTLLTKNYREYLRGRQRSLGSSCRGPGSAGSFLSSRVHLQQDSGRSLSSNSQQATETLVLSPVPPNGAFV
In short: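 Cloned mouse urotensin (mUR2) receptor membranes from Perkin Elmer Biosignal were immobilized in FlashPlate microplates using a proprietary coating. Each well got 19.5 μl buffer, then 0.5 μl of DMSO, reference ligand, or compound. Adding 5 μl of [125I]-Urotensin II, diluted to 5× final concentration in binding buffer, started binding. Plates were sealed with TopSeal-A and incubated 1 hour at room temperature in the dark. Wells were counted for 30 seconds each on a TopCount after a 60-second delay, and percentage inhibition was calculated.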

[3] = [125I]-S36057, human MCH1 membranes

T3 sequence (P41968 whole entry): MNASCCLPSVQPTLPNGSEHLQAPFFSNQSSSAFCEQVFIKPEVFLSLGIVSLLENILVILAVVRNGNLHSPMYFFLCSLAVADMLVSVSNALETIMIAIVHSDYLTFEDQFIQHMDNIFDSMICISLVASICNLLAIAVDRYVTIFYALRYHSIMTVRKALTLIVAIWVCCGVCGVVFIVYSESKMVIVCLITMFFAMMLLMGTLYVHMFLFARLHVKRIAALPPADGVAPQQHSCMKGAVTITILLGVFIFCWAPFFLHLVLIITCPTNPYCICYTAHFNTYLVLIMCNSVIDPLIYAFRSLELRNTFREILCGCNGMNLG
T1 sequence (P41143 whole entry): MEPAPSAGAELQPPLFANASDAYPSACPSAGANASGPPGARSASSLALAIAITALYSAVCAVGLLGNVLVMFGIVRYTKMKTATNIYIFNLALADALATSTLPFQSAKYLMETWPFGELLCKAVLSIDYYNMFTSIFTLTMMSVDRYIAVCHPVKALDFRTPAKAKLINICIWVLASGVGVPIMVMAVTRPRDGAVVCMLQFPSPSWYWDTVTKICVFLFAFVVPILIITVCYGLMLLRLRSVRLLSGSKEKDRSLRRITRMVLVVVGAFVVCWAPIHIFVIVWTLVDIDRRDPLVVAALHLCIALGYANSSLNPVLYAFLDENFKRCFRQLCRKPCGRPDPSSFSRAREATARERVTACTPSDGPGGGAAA
T5 sequence (P33032 whole entry): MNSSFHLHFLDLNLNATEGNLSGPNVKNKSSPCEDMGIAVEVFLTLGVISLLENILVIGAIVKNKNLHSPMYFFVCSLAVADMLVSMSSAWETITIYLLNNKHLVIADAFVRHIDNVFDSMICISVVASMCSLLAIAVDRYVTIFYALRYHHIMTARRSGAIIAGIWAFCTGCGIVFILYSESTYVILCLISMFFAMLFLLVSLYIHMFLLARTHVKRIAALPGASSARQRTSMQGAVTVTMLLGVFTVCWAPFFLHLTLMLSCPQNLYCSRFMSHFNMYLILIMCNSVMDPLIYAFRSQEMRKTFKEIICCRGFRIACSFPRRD
T7 sequence (P35372 whole entry): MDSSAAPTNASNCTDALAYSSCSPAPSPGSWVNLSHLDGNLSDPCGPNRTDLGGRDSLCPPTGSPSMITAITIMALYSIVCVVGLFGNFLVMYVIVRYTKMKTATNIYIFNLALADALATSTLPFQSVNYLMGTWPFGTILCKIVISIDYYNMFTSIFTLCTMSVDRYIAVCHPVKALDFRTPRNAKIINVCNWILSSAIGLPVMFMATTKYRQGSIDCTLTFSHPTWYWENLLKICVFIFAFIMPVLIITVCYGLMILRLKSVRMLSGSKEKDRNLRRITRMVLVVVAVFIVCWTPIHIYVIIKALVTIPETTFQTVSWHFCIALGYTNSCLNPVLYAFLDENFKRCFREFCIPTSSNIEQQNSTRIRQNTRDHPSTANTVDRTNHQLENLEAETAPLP
T10 sequence (P41146 whole entry): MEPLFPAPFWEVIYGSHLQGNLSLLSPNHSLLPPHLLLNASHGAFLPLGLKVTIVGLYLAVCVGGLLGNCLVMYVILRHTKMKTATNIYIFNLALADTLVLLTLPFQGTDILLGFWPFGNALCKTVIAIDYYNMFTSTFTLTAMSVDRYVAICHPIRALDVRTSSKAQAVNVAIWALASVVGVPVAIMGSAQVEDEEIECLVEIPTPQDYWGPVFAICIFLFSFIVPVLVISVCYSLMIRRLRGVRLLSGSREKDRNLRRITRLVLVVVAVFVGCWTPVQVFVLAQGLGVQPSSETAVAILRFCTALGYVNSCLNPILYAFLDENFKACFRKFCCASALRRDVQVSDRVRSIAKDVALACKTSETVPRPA
T6 sequence (Q99705 whole entry): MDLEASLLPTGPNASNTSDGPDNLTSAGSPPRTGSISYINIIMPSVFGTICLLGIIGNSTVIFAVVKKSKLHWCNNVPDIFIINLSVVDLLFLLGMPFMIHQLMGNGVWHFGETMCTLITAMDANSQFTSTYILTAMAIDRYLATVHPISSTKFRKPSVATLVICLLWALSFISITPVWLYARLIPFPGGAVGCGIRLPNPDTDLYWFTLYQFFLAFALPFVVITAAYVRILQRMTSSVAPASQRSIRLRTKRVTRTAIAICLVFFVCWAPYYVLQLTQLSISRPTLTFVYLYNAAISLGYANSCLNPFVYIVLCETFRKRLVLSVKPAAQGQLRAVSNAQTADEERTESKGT
T8 sequence (P25103 whole entry): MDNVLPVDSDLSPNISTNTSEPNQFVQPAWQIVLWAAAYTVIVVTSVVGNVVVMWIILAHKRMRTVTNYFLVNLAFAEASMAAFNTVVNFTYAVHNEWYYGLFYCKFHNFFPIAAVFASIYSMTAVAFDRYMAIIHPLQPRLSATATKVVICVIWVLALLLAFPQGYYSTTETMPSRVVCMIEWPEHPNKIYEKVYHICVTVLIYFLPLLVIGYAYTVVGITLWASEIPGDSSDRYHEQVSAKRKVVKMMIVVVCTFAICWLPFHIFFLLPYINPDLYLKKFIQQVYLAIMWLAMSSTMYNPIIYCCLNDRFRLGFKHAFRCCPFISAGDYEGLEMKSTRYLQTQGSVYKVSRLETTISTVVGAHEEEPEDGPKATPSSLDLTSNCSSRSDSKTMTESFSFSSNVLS
T4 sequence (P32245 whole entry): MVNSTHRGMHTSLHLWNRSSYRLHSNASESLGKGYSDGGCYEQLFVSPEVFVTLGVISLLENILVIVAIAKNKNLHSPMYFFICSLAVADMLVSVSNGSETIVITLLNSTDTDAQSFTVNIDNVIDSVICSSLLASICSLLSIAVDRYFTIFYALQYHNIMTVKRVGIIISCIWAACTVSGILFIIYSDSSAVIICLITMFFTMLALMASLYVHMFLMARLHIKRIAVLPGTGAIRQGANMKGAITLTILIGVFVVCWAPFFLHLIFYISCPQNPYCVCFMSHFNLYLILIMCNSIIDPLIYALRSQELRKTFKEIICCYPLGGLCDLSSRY
T2 sequence (P41145 whole entry): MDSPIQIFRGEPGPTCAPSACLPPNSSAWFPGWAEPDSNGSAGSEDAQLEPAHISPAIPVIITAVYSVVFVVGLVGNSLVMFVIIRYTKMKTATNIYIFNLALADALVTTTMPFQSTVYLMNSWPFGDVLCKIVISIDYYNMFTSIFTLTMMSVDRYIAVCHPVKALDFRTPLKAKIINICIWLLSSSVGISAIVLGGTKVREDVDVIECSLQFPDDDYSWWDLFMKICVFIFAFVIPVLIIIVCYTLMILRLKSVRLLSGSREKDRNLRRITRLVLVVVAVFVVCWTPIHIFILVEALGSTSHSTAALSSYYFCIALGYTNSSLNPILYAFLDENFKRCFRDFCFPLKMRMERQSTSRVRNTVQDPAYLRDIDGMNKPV

| SMILES | A1: inhibition of radioligand binding (Human δ-opioid (DOP); human DOP membranes) | A2: inhibition of radioligand binding (Human κ-Opioid (KOP); human KOP membranes) | A3: inhibition of radioligand binding (Human Melanocortin (MC3); human MC3 membranes) | A4: inhibition of radioligand binding (Human Melanocortin (MC4); human MC4 membranes) | A5: inhibition of radioligand binding (Human melanocortin (MC5); human MC5 membranes) | A6: inhibition of radioligand binding [1, 3] | A7: inhibition of radioligand binding (Human μ-opioid (MOP); human MOP membranes) | A8: inhibition of radioligand binding (Human neurokinin (NK1); human NK1 membranes) | A9: inhibition of radioligand binding ([2]; human NPY-Y1 membranes) | A10: inhibition of radioligand binding (Human opioid (ORL1); human ORL1 membranes) | A11: inhibition of radioligand binding (Mouse urotensin (mUR2); mouse mUR2 membranes) | A1: inhibition of radioligand binding, human δ-opioid (DOP) (Human δ-opioid (DOP)) | A2: inhibition of radioligand binding, human κ-opioid (KOP) (Human κ-Opioid (KOP)) | A3: inhibition of radioligand binding, human melanocortin (MC3) (Human Melanocortin (MC3)) | A4: inhibition of radioligand binding, human melanocortin (MC4) (Human Melanocortin (MC4)) | A5: inhibition of radioligand binding, human melanocortin (MC5) (Human melanocortin (MC5)) | A6: inhibition of radioligand binding, human melanin-concentrating hormone (MCH1) [1] | A7: inhibition of radioligand binding, human μ-opioid (MOP) (Human μ-opioid (MOP)) | A8: inhibition of radioligand binding, human neurokinin (NK1) (Human neurokinin (NK1)) | A9: inhibition of radioligand binding, human neuropeptide Y (NPY-Y1) [2] | also measured |
| --- | --- | --- | --- | --- | --- | --- | --- | --- | --- | --- | --- | --- | --- | --- | --- | --- | --- | --- | --- | --- | --- |
| N=C(N)NCCC(=O)NC1C(OCc2ccc(Cl)cc2)OC(COCc2ccc3ccccc3c2)C(O)C1OCc1ccc(Cl)cc1 (stereo not shown) [compound 426] | − (“−” indicates less than 50% inhibition at 10 μM) | − (“−” indicates less than 50% inhibition at 10 μM) | + (“+” indicates greater than 50% inhibition at 10 μM) | + (“+” indicates greater than 50% inhibition at 10 μM) | + (“+” indicates greater than 50% inhibition at 10 μM) | + (“+” indicates greater than 50% inhibition at 10 μM) | − (“−” indicates less than 50% inhibition at 10 μM) | + (“+” indicates greater than 50% inhibition at 10 μM) | + (“+” indicates greater than 50% inhibition at 10 μM) | + (“+” indicates greater than 50% inhibition at 10 μM) | − (“−” indicates less than 50% inhibition at 10 μM) |  |  |  |  |  |  |  |  |  |  |
| COCC1OC(OCc2ccc(Cl)cc2)C(NC(=O)CNC(=N)N)C(OCc2ccccc2)C1O (stereo not shown) [compound 194] |  |  |  |  |  |  |  |  |  |  |  |  |  |  |  |  |  |  |  |  | A1: inhibition of radioligand binding (Human δ-opioid (DOP); FlashPlate): − (“−” indicates less than 50% inhibition at 10 μM); A2: inhibition of radioligand binding (Human κ-Opioid (KOP); filtration): − (“−” indicates less than 50% inhibition at 10 μM); A3: inhibition of radioligand binding (Human Melanocortin (MC3); FlashPlate): − (“−” indicates less than 50% inhibition at 10 μM); A4: inhibition of radioligand binding (Human Melanocortin (MC4); FlashPlate): + (“+” indicates greater than 50% inhibition at 10 μM); A5: inhibition of radioligand binding (Human melanocortin (MC5); FlashPlate): + (“+” indicates greater than 50% inhibition at 10 μM); A6: inhibition of radioligand binding ([1]; [125I]-S36057, FlashPlate): − (“−” indicates less than 50% inhibition at 10 μM); A7: inhibition of radioligand binding (Human μ-opioid (MOP); FlashPlate): − (“−” indicates less than 50% inhibition at 10 μM); A8: inhibition of radioligand binding (Human neurokinin (NK1); filtration): + (“+” indicates greater than 50% inhibition at 10 μM); A9: inhibition of radioligand binding ([2]; FlashPlate): − (“−” indicates less than 50% inhibition at 10 μM); A10: inhibition of radioligand binding (Human opioid (ORL1); FlashPlate): − (“−” indicates less than 50% inhibition at 10 μM); A11: inhibition of radioligand binding (Mouse urotensin (mUR2); FlashPlate): − (“−” indicates less than 50% inhibition at 10 μM) |
| CSC1OC(COCc2ccc(-c3ccccc3)cc2)C(O)C(OCc2ccc3ccccc3c2)C1NC(=O)CNC(=N)N (stereo not shown) [compound 312] |  |  |  |  |  |  |  |  |  |  |  | − (“−” indicates less than 50% inhibition at 10 μM) | − (“−” indicates less than 50% inhibition at 10 μM) | + (“+” indicates greater than 50% inhibition at 10 μM) | + (“+” indicates greater than 50% inhibition at 10 μM) | + (“+” indicates greater than 50% inhibition at 10 μM) | − (“−” indicates less than 50% inhibition at 10 μM) | − (“−” indicates less than 50% inhibition at 10 μM) | + (“+” indicates greater than 50% inhibition at 10 μM) | − (“−” indicates less than 50% inhibition at 10 μM) | A10: inhibition of radioligand binding, human opioid (ORL1) (Human opioid (ORL1)): − (“−” indicates less than 50% inhibition at 10 μM); A11: inhibition of radioligand binding, mouse urotensin (mUR2) (Mouse urotensin (mUR2)): − (“−” indicates less than 50% inhibition at 10 μM) |
| N=C(N)NCC(=O)NC1C(OCc2ccc(Cl)cc2)OC(COCc2ccccc2)C(O)C1OCc1ccc(-c2ccccc2)cc1 (stereo not shown) [compound 424] | − (“−” indicates less than 50% inhibition at 10 μM) | − (“−” indicates less than 50% inhibition at 10 μM) | + (“+” indicates greater than 50% inhibition at 10 μM) | + (“+” indicates greater than 50% inhibition at 10 μM) | + (“+” indicates greater than 50% inhibition at 10 μM) | − (“−” indicates less than 50% inhibition at 10 μM) | − (“−” indicates less than 50% inhibition at 10 μM) | + (“+” indicates greater than 50% inhibition at 10 μM) | − (“−” indicates less than 50% inhibition at 10 μM) | − (“−” indicates less than 50% inhibition at 10 μM) | − (“−” indicates less than 50% inhibition at 10 μM) |  |  |  |  |  |  |  |  |  |  |
| NCCCC(=O)NC1C(OCc2ccccc2)OC(COCc2ccccc2)C(O)C1OCc1ccc2ccccc2c1 (stereo not shown) [compound 376] |  |  |  |  |  |  |  |  |  |  |  | − (“−” indicates less than 50% inhibition at 10 μM) | − (“−” indicates less than 50% inhibition at 10 μM) | − (“−” indicates less than 50% inhibition at 10 μM) | + (“+” indicates greater than 50% inhibition at 10 μM) | + (“+” indicates greater than 50% inhibition at 10 μM) | − (“−” indicates less than 50% inhibition at 10 μM) | − (“−” indicates less than 50% inhibition at 10 μM) | + (“+” indicates greater than 50% inhibition at 10 μM) | − (“−” indicates less than 50% inhibition at 10 μM) | A10: inhibition of radioligand binding, human opioid (ORL1) (Human opioid (ORL1)): − (“−” indicates less than 50% inhibition at 10 μM); A11: inhibition of radioligand binding, mouse urotensin (mUR2) (Mouse urotensin (mUR2)): − (“−” indicates less than 50% inhibition at 10 μM) |
